Assay results published in the supplement of paper PMC6045584.
± gives the standard deviation of the averaged measurements.

Assays:
AFATINIB [1] = compound: T1, CN(C)C/C=C/C(=O)Nc1cc2c(Nc3ccc(F)c(Cl)c3)ncnc2cc1O[C@H]1CCOC1 [AFATINIB]; assay: surviving fraction relative to DMSO-only wells; higher = less growth inhibition; details: exposure time: 5 days
Outline: (§1)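 Tumour cell lines in log phase were plated in 384-well plates at 250–500 cells per well, then, after 24 hours, exposed continuously for five days to inhibitors at 0.5, 1, 5, 10, 50, 100, 500 and 1000 nM. Viability came from CellTiter-Glo luminescence, and surviving fraction is that signal normalised to the median of DMSO-only wells. Plates were read after 10 minutes at room temperature, and each line, screened three times, was kept only when replicate Pearson r was >0.7 and median Z' was >0.3.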

[2] = compound: Cn1cc(C2=Nc3cc(NC(=O)C(N)C4CCCCC4)cc4c3C2=CNNC4=O)cn1; assay: as above; details: exposure time: 5 days
Outline: as §1

SNX-5422 = compound: CC1(C)CC(=O)c2c(C(F)(F)F)nn(-c3ccc(C(N)=O)c(N[C@H]4CC[C@H](OC(=O)CN)CC4)c3)c2C1 [SNX-5422]; assay: area under dose-response curve of surviving fraction (unscaled, Aref=0) (surviving fraction x log10(nM)); higher = more resistant; details: exposure time: 5 days; dose range 0.5-1000 nM
Outline: (§2)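 Tumour cell lines in 384-well plates were exposed for five days to eight inhibitor concentrations from 0.5 to 1000 nM. Viability was read by CellTiter-Glo luminescence, normalised to DMSO-only wells, in three screens per line. Dose-response survival curves were fitted to surviving fractions by 3-parameter logistic regression in the drc R package. Area under the curve is the unscaled activity area (Aref = 0) over log10 dose.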

SAPACITABINE = compound: CCCCCCCCCCCCCCCC(=O)Nc1ccn([C@@H]2O[C@H](CO)[C@@H](O)[C@@H]2C#N)c(=O)n1 [SAPACITABINE]; assay: as above; details: exposure time: 5 days; dose range 0.5-1000 nM
Outline: as §2

AFATINIB [3] = compound: T1, AFATINIB; assay: as above; details: exposure time: 5 days; dose range 0.5-1000 nM
Outline: as §2

[4] = compound: Cn1cc(C2=Nc3cc(NC(=O)C(N)C4CCCCC4)cc4c3C2=CNNC4=O)cn1; assay: as above; details: exposure time: 5 days; dose range 0.5-1000 nM
Outline: as §2

Test System | surviving fraction (AFATINIB [1]; 0.5 nM) | surviving fraction (AFATINIB [1]; 1 nM) | surviving fraction (AFATINIB [1]; 5 nM) | surviving fraction (AFATINIB [1]; 10 nM) | surviving fraction (AFATINIB [1]; 50 nM) | surviving fraction (AFATINIB [1]; 100 nM) | surviving fraction (AFATINIB [1]; 500 nM) | surviving fraction (AFATINIB [1]; 1000 nM) | surviving fraction ([2]; 0.5 nM) | surviving fraction ([2]; 1 nM) | surviving fraction ([2]; 5 nM) | surviving fraction ([2]; 10 nM) | surviving fraction ([2]; 50 nM) | surviving fraction ([2]; 100 nM) | surviving fraction ([2]; 500 nM) | surviving fraction ([2]; 1000 nM) | area under dose-response curve (SNX-5422) | area under dose-response curve (SAPACITABINE) | area under dose-response curve (AFATINIB [3]) | area under dose-response curve [4]
VP229 BREAST | 1.1 ± 0.11 | 1.03 ± 0.13 | 0.645 ± 0.079 | 0.586 ± 0.076 | 0.324 ± 0.011 | 0.273 ± 0.04 | 0.272 ± 0.021 | 0.165 ± 0.025 | 1.04 ± 0.11 | 1.04 ± 0.035 | 1.02 ± 0.059 | 1.11 ± 0.17 | 1.06 ± 0.15 | 1.01 ± 0.064 | 1.13 ± 0.13 | 1.06 ± 0.15 | 2.34 | 2.46 | 1.7 | 3.5
LM7 BONE | 1.02 ± 0.049 | 1 ± 0.14 | 1.02 ± 0.074 | 1.07 ± 0.026 | 1.02 ± 0.026 | 0.914 ± 0.091 | 0.443 ± 0.051 | 0.169 ± 0.013 | 0.979 ± 0.073 | 0.898 ± 0.06 | 1.04 ± 0.07 | 1.01 ± 0.11 | 0.826 ± 0.017 | 0.651 ± 0.033 | 0.119 ± 0.015 | 0.0753 ± 0.0038 | 1.88 | 1.77 | 2.89 | 2.46
SNU475 LIVER | 1.01 ± 0.03 | 0.985 ± 0.029 | 0.953 ± 0.062 | 0.937 ± 0.028 | 0.922 ± 0.024 | 0.893 ± 0.054 | 0.717 ± 0.012 | 0.432 ± 0.027 | 0.965 ± 0.028 | 0.967 ± 0.053 | 0.987 ± 0.013 | 1.01 ± 0.02 | 0.892 ± 0.038 | 0.898 ± 0.046 | 0.731 ± 0.034 | 0.514 ± 0.082 | 2.29 | 2.23 | 2.99 | 3
SCC90 HEADNECK | 1 ± 0.04 | 0.907 ± 0.086 | 0.621 ± 0.036 | 0.495 ± 0.028 | 0.42 ± 0.08 | 0.351 ± 0.0068 | 0.288 ± 0.011 | 0.235 ± 0.011 | 0.92 ± 0.099 | 0.952 ± 0.11 | 0.943 ± 0.12 | 0.991 ± 0.014 | 0.891 ± 0.057 | 0.702 ± 0.029 | 0.15 ± 0.0075 | 0.068 ± 0.0076 | 1.96 | 3.07 | 1.7 | 2.53
S68 BREAST | 0.958 ± 0.2 | 0.976 ± 0.33 | 0.735 ± 0.085 | 0.809 ± 0.14 | 0.656 ± 0.12 | 0.907 ± 0.14 | 0.478 ± 0.064 | 0.314 ± 0.055 | 0.693 ± 0.42 | 1.17 ± 0.18 | 1.02 ± 0.12 | 0.901 ± 0.12 | 0.42 ± 0.048 | 0.345 ± 0.041 | 0.135 ± 0.012 | 0.0897 ± 0.0071 | 1.76 | 1.85 | 2.48 | 2.05
C33A CERVIX | 0.907 ± 0.059 | 1.02 ± 0.12 | 0.909 ± 0.046 | 0.939 ± 0.085 | 0.507 ± 0.0065 | 0.417 ± 0.0072 | 0.337 ± 0.038 | 0.23 ± 0.0027 | 0.878 ± 0.066 | 0.99 ± 0.041 | 1.02 ± 0.094 | 1.03 ± 0.036 | 0.952 ± 0.046 | 0.833 ± 0.063 | 0.335 ± 0.011 | 0.0597 ± 0.025 | 1.96 | 2.35 | 2.23 | 2.75
MDAMB231 BREAST | 1.05 ± 0.026 | 1.05 ± 0.028 | 1.06 ± 0.037 | 1.05 ± 0.027 | 1.04 ± 0.03 | 0.995 ± 0.025 | 0.668 ± 0.013 | 0.335 ± 0.021 | 0.95 ± 0.016 | 0.949 ± 0.031 | 0.964 ± 0.015 | 0.953 ± 0.032 | 0.908 ± 0.029 | 0.896 ± 0.019 | 0.544 ± 0.04 | 0.278 ± 0.01 | 2.3 | 2.9 | 3.07 | 2.84
